Results taken from patent US20240349726A1, “SUBSTITUTED 1,2,4-THIADIAZOLYL NICOTINAMIDES, SALTS OR N-OXIDES THEREOF AND THEIR USE AS HERBICIDALLY ACTIVE SUBSTANCES” (Bayer Aktiengesellschaft, priority 2021, published 2024).

How the values were obtained:
Format in all cases: in vivo
[1] = test system: Stellaria media; assay: Herbicidal post-emergence action, STEME; conditions: assessed visually after ca. 3 weeks vs untreated controls
Excerpt: (§1) Seeds of mono- and dicotyledonous weed plants were sown in plastic pots (double sowings with one species of mono- and one species of dicotyledonous weed plants per pot), in sandy loam, covered with soil and grown under controlled growth conditions. 2 to 3 weeks after sowing, the test plants were sprayed in the single-leaf stage. The compounds according to the invention, formulated in the form of wettable powders (WP) or as emulsifiable concentrates (EC), were sprayed onto the green plant parts as an aqueous suspension or as an emulsion, with the addition of 0.5% of an additive, at an application rate of 600 litres of water per hectare (converted). The test plants were placed in the greenhouse for ca. 3 weeks under optimum growth conditions, and then the effect of the preparations is assessed visually in comparison with untreated controls (herbicidal effect in percent (%): 100% effect=plants have died, 0% effect=as control plants). […]

[2] = test system: Amaranthus retroflexus; assay: Herbicidal pre-emergence action, AMARE; conditions: visual grading after ca. 3 weeks vs untreated controls
Excerpt: (§2) Seeds of mono- and dicotyledonous weed plants were sown in plastic pots (double sowings with one species of mono- and one species of dicotyledonous weed plants per pot), in sandy loam, and covered with soil. The compounds according to the invention, formulated in the form of wettable powders (WP) or as emulsifiable concentrates (EC), were applied to the surface of the covering soil as an aqueous suspension or as an emulsion, with the addition of 0.5% of an additive, at an application rate of 600 litres of water per hectare (converted). Following treatment, the pots were placed in a greenhouse and kept under optimum growth conditions for the test plants. The visual grading of the damage to the test plants is carried out after ca. 3 weeks in comparison to untreated controls (herbicidal effect in percent (%): 100% effect=plants have died, 0% effect=as control plants). Seeds of mono- and dicotyledonous weed plants were sown in plastic pots (double sowings with one species of mono- and one species of dicotyledonous weed plants per pot), in sandy loam, and covered with soil. The compounds according to the invention, formulated in the form of wettable powders (WP) or as emulsifiable concentrates (EC), were applied to the surface of the covering soil as an aqueous suspension or as an emulsion, with the addition of 0.5% of an additive, at an application rate of 600 litres of water per hectare (converted). Following treatment, the pots were placed in a greenhouse and kept under optimum growth conditions for the test plants. The visual grading of the damage to the test plants is carried out after ca. 3 weeks in comparison to untreated controls (herbicidal effect in percent (%): 100% effect=plants have died, 0% effect=as control plants).

[3] = test system: Matricaria inodora; assay: Herbicidal pre-emergence action, MATIN; conditions: visual grading after ca. 3 weeks vs untreated controls
Excerpt: as §2

[4] = test system: Matricaria inodora; assay: Herbicidal post-emergence action, MATIN; conditions: assessed visually after ca. 3 weeks vs untreated controls
Excerpt: as §1

[5] = test system: Lolium rigidum; assay: Herbicidal pre-emergence action, LOLRI; conditions: visual grading after ca. 3 weeks vs untreated controls
Excerpt: as §2

[6] = test system: Stellaria media; assay: Herbicidal pre-emergence action, STEME; conditions: visual grading after ca. 3 weeks vs untreated controls
Excerpt: as §2

[7] = test system: Poa annua; assay: Herbicidal pre-emergence action, POAAN; conditions: visual grading after ca. 3 weeks vs untreated controls
Excerpt: as §2

[8] = test system: Lolium rigidum; assay: Herbicidal post-emergence action, LOLRI; conditions: assessed visually after ca. 3 weeks vs untreated controls
Excerpt: as §1

[9] = test system: Amaranthus retroflexus; assay: Herbicidal post-emergence action, AMARE; conditions: assessed visually after ca. 3 weeks vs untreated controls
Excerpt: as §1

[10] = test system: Setaria viridis; assay: Herbicidal pre-emergence action, SETVI; conditions: 1280 g/ha, visual grading after ca. 3 weeks vs untreated controls
Excerpt: (§3) Seeds of mono- and dicotyledonous weed plants were sown in plastic pots (double sowings with one species of mono- and one species of dicotyledonous weed plants per pot), in sandy loam, and covered with soil. The compounds according to the invention, formulated in the form of wettable powders (WP) or as emulsifiable concentrates (EC), were applied to the surface of the covering soil as an aqueous suspension or as an emulsion, with the addition of 0.5% of an additive, at an application rate of 600 litres of water per hectare (converted). Following treatment, the pots were placed in a greenhouse and kept under optimum growth conditions for the test plants. The visual grading of the damage to the test plants is carried out after ca. 3 weeks in comparison to untreated controls (herbicidal effect in percent (%): 100% effect=plants have died, 0% effect=as control plants).

[11] = test system: Poa annua; assay: Herbicidal post-emergence action, POAAN; conditions: assessed visually after ca. 3 weeks vs untreated controls
Excerpt: as §1

[12] = test system: Setaria viridis; assay: Herbicidal post-emergence action, SETVI; conditions: 1280 g/ha, assessed visually after ca. 3 weeks vs untreated controls
Excerpt: Seeds of mono- and dicotyledonous weed plants were sown in plastic pots (double sowings with one species of mono- and one species of dicotyledonous weed plants per pot), in sandy loam, covered with soil and grown under controlled growth conditions. 2 to 3 weeks after sowing, the test plants were sprayed in the single-leaf stage. The compounds according to the invention, formulated in the form of wettable powders (WP) or as emulsifiable concentrates (EC), were sprayed onto the green plant parts as an aqueous suspension or as an emulsion, with the addition of 0.5% of an additive, at an application rate of 600 litres of water per hectare (converted). The test plants were placed in the greenhouse for ca. 3 weeks under optimum growth conditions, and then the effect of the preparations is assessed visually in comparison with untreated controls (herbicidal effect in percent (%): 100% effect=plants have died, 0% effect=as control plants).

[13] = test system: Kochia scoparia; assay: Herbicidal pre-emergence action, KCHSC; conditions: visual grading after ca. 3 weeks vs untreated controls
Excerpt: as §2

[14] = test system: Kochia scoparia; assay: Herbicidal post-emergence action, KCHSC; conditions: assessed visually after ca. 3 weeks vs untreated controls
Excerpt: as §1

[15] = test system: Abutilon theophrasti; assay: Herbicidal post-emergence action, ABUTH; conditions: 1280 g/ha, assessed visually after ca. 3 weeks vs untreated controls
Excerpt: as §1

[16] = test system: Veronica persica; assay: Herbicidal post-emergence action, VERPE; conditions: assessed visually after ca. 3 weeks vs untreated controls
Excerpt: as §1

[17] = test system: Veronica persica; assay: Herbicidal pre-emergence action, VERPE; conditions: visual grading after ca. 3 weeks vs untreated controls
Excerpt: as §2

[18] = test system: Alopecurus myosuroides; assay: Herbicidal post-emergence action, ALOMY; conditions: assessed visually after ca. 3 weeks vs untreated controls
Excerpt: as §1

[19] = test system: Digitaria sanguinalis; assay: Herbicidal pre-emergence action, DIGSA; conditions: 1280 g/ha, visual grading after ca. 3 weeks vs untreated controls
Excerpt: as §3

[20] = test system: Alopecurus myosuroides; assay: Herbicidal pre-emergence action, ALOMY; conditions: 1280 g/ha, visual grading after ca. 3 weeks vs untreated controls
Excerpt: as §3

[21] = test system: Echinochloa crus-galli; assay: Herbicidal pre-emergence action, ECHCG; conditions: 1280 g/ha, visual grading after ca. 3 weeks vs untreated controls
Excerpt: as §3

| Structure (SMILES) | herbicidal effect STEME ([1]; 320 g/ha) | herbicidal effect STEME ([1]; 1280 g/ha) | herbicidal effect AMARE ([2]; 1280 g/ha) | herbicidal effect MATIN ([3]; 1280 g/ha) | herbicidal effect MATIN ([4]; 320 g/ha) | herbicidal effect MATIN ([4]; 1280 g/ha) | herbicidal effect LOLRI ([5]; 1280 g/ha) | herbicidal effect STEME ([6]; 320 g/ha) | herbicidal effect STEME ([6]; 1280 g/ha) | herbicidal effect POAAN ([7]; 320 g/ha) | herbicidal effect POAAN ([7]; 1280 g/ha) | herbicidal effect LOLRI ([8]; 1280 g/ha) | herbicidal effect AMARE ([9]; 1280 g/ha) | herbicidal effect POAAN ([11]; 320 g/ha) | herbicidal effect POAAN ([11]; 1280 g/ha) | herbicidal effect SETVI [12] | herbicidal effect KCHSC ([13]; 1280 g/ha) | herbicidal effect KCHSC ([14]; 1280 g/ha) | herbicidal effect VERPE ([16]; 320 g/ha) | herbicidal effect VERPE ([16]; 1280 g/ha) | also measured |
| --- | --- | --- | --- | --- | --- | --- | --- | --- | --- | --- | --- | --- | --- | --- | --- | --- | --- | --- | --- | --- | --- |
| O=C(Nc1ncns1)c1cnccc1C(F)(F)F [Example I-001] | 100% | 100% | 100% | 100% | 90% | 100% | 100% | 100% | 100% | 100% | 100% | 90% | 90% | 100% | 100% | – | – | – | – | – | herbicidal effect AMARE ([2]; 320 g/ha): 100%; herbicidal effect SETVI [10]: 90% |
| O=C(Nc1ncns1)c1c(C(F)(F)F)ccnc1F [Example I-002] | 100% | 100% | 90% | 100% | 90% | 100% | 100% | 100% | 100% | 100% | 100% | 100% | 100% | 100% | 100% | 90% | 90% | 100% | 100% | 100% | herbicidal effect MATIN ([3]; 320 g/ha): 90%; herbicidal effect KCHSC ([14]; 320 g/ha): 100%; herbicidal effect LOLRI ([5]; 320 g/ha): 100%; herbicidal effect ABUTH [15]: 90%; herbicidal effect LOLRI ([8]; 320 g/ha): 90%; herbicidal effect VERPE ([17]; 320 g/ha): 90%; herbicidal effect VERPE ([17]; 1280 g/ha): 100%; herbicidal effect ALOMY ([18]; 320 g/ha): 100%; herbicidal effect ALOMY ([18]; 1280 g/ha): 100% |
| O=C(Nc1ncns1)c1c(C(F)(F)F)ccnc1C1CC1 [Example I-005] | 90% | 90% | 100% | 100% | – | – | 100% | 100% | 100% | 100% | 100% | – | – | 100% | 100% | – | 100% | 90% | 100% | 100% | herbicidal effect DIGSA [19]: 90% |
| O=C(Nc1nc(Cl)ns1)c1c(C(F)(F)F)ccnc1F [Example I-009, N-(3-chloro-1,2,4-thiadiazol-5-yl)-2-fluoro-4-(trifluoromethyl)pyridine-3-carboxamide] | 100% | 100% | 100% | 100% | 100% | 100% | 90% | 100% | 100% | – | 90% | 90% | 100% | 90% | 100% | 90% | 100% | 100% | 100% | 100% | herbicidal effect AMARE ([2]; 320 g/ha): 90%; herbicidal effect KCHSC ([13]; 320 g/ha): 90%; herbicidal effect MATIN ([3]; 320 g/ha): 100%; herbicidal effect KCHSC ([14]; 320 g/ha): 100%; herbicidal effect ABUTH [15]: 90%; herbicidal effect ALOMY [20]: 100%; herbicidal effect ECHCG [21]: 90%; herbicidal effect VERPE ([17]; 1280 g/ha): 90%; herbicidal effect ALOMY ([18]; 320 g/ha): 90%; herbicidal effect ALOMY ([18]; 1280 g/ha): 100%; herbicidal effect AMARE ([9]; 320 g/ha): 100%; herbicidal effect SETVI [10]: 90% |
| O=C(Nc1nc(Cl)ns1)c1cnccc1C(F)(F)F [Example I-015] | 100% | 100% | – | – | 90% | 100% | – | – | – | – | – | – | 100% | – | – | 90% | 90% | 90% | 90% | 90% | – |
